# Experimental data from ChEMBL document CHEMBL6153062, “Design, Synthesis, and Unprecedented Interactions of Covalent Dipeptide-Based Inhibitors of SARS-CoV-2 Main Protease and Its Variants Displaying Potent Antiviral Activity” (J Med Chem, 2025).
# Assays:
# [1] = Inhibition of SARS-CoV-2 MPro A173 V mutant; design: species or system Severe acute respiratory syndrome coronavirus 2
# [2] = Inhibition of SARS-CoV-2 MPro S144A mutant; design: species or system Severe acute respiratory syndrome coronavirus 2
# [3] = Inhibition of SARS-CoV-2 MPro M165T mutant; design: species or system Severe acute respiratory syndrome coronavirus 2
# [4] = Inhibition of SARS-CoV-2 MPro L50F/E166A/L167F mutant; design: species or system Severe acute respiratory syndrome coronavirus 2
# [5] = Inhibition of SARS-CoV-2 MPro E166 V mutant; design: species or system Severe acute respiratory syndrome coronavirus 2
# [6] = Inhibition of SARS-CoV-2 MPro Q189E mutant; design: species or system Severe acute respiratory syndrome coronavirus 2
# [7] = Inhibition of SARS-CoV-2 MPro H172F mutant; design: species or system Severe acute respiratory syndrome coronavirus 2
# [8] = Inhibition of SARS-CoV-2 MPro S144M mutant; design: species or system Severe acute respiratory syndrome coronavirus 2
# [9] = Inhibition of SARS-CoV-2 MPro S144F mutant; design: species or system Severe acute respiratory syndrome coronavirus 2
# [10] = Inhibition of SARS-CoV-2 MPro deltaP168 mutant; design: species or system Severe acute respiratory syndrome coronavirus 2
# [11] = Inhibition of SARS-CoV-2 MPro S144Y mutant; design: species or system Severe acute respiratory syndrome coronavirus 2
# [12] = system: Severe acute respiratory syndrome coronavirus 2; assay: Selectivity index, ratio of IC50 for inhibition of SARS-CoV-2 MPro S144G mutant to IC50 for inhibition of wild type SARS-CoV-2 MPro
# [13] = system: Severe acute respiratory syndrome coronavirus 2; assay: Selectivity index, ratio of IC50 for inhibition of SARS-CoV-2 MPro S144M mutant to IC50 for inhibition of wild type SARS-CoV-2 MPro
# [14] = Inhibition of SARS-CoV-2 MPro S144G mutant; design: species or system Severe acute respiratory syndrome coronavirus 2
# [15] = system: Severe acute respiratory syndrome coronavirus 2; assay: Selectivity index, ratio of IC50 for inhibition of SARS-CoV-2 MPro H172Y mutant to IC50 for inhibition of wild type SARS-CoV-2 MPro
# [16] = Inhibition of SARS-CoV-2 MPro G143S mutant; design: species or system Severe acute respiratory syndrome coronavirus 2
# [17] = system: Severe acute respiratory syndrome coronavirus 2; assay: Selectivity index, ratio of IC50 for inhibition of SARS-CoV-2 MPro deltaP168 mutant to IC50 for inhibition of wild type SARS-CoV-2 MPro
# [18] = system: Severe acute respiratory syndrome coronavirus 2; assay: Selectivity index, ratio of IC50 for inhibition of SARS-CoV-2 MPro G143S mutant to IC50 for inhibition of wild type SARS-CoV-2 MPro
# [19] = system: Severe acute respiratory syndrome coronavirus 2; assay: Selectivity index, ratio of IC50 for inhibition of SARS-CoV-2 MPro S144F mutant to IC50 for inhibition of wild type SARS-CoV-2 MPro
# [20] = Inhibition of SARS-CoV-2 MPro H172Y mutant; design: species or system Severe acute respiratory syndrome coronavirus 2
# [21] = Inhibition of SARS-CoV-2 MPro H172Q mutant; design: species or system Severe acute respiratory syndrome coronavirus 2
# [22] = system: Severe acute respiratory syndrome coronavirus 2; assay: Selectivity index, ratio of IC50 for inhibition of SARS-CoV-2 MPro Q192S mutant to IC50 for inhibition of wild type SARS-CoV-2 MPro
# [23] = system: Severe acute respiratory syndrome coronavirus 2; assay: Selectivity index, ratio of IC50 for inhibition of SARS-CoV-2 MPro H172F mutant to IC50 for inhibition of wild type SARS-CoV-2 MPro
# [24] = system: Severe acute respiratory syndrome coronavirus 2; assay: Selectivity index, ratio of IC50 for inhibition of SARS-CoV-2 MPro S144Y mutant to IC50 for inhibition of wild type SARS-CoV-2 MPro
# [25] = system: Severe acute respiratory syndrome coronavirus 2; assay: Selectivity index, ratio of IC50 for inhibition of SARS-CoV-2 MPro S144A mutant to IC50 for inhibition of wild type SARS-CoV-2 MPro
# [26] = system: Severe acute respiratory syndrome coronavirus 2; assay: Selectivity index, ratio of IC50 for inhibition of SARS-CoV-2 MPro H172Q mutant to IC50 for inhibition of wild type SARS-CoV-2 MPro
# [27] = system: Severe acute respiratory syndrome coronavirus 2; assay: Selectivity index, ratio of IC50 for inhibition of SARS-CoV-2 MPro L50F/E166A/L167F mutant to IC50 for inhibition of wild type SARS-CoV-2 MPro
# [28] = system: Severe acute respiratory syndrome coronavirus 2; assay: Selectivity index, ratio of IC50 for inhibition of SARS-CoV-2 MPro Q189E mutant to IC50 for inhibition of wild type SARS-CoV-2 MPro
# [29] = system: Severe acute respiratory syndrome coronavirus 2; assay: Selectivity index, ratio of IC50 for inhibition of SARS-CoV-2 MPro A173 V mutant to IC50 for inhibition of wild type SARS-CoV-2 MPro
# [30] = system: Severe acute respiratory syndrome coronavirus 2; assay: Selectivity index, ratio of IC50 for inhibition of SARS-CoV-2 MPro M165T mutant to IC50 for inhibition of wild type SARS-CoV-2 MPro
# [31] = Inhibition of SARS-CoV-2 MPro Q192S mutant; design: species or system Severe acute respiratory syndrome coronavirus 2
# [32] = system: Severe acute respiratory syndrome coronavirus 2; assay: Selectivity index, ratio of IC50 for inhibition of SARS-CoV-2 MPro E166 V mutant to IC50 for inhibition of wild type SARS-CoV-2 MPro
SMILES,IC50 [1],IC50 [2],IC50 [3],IC50 [4],IC50 [5],IC50 [6],IC50 [7],IC50 [8],IC50 [9],IC50 [10],IC50 [11],IC50 [14],IC50 [16],IC50 [20],IC50 [21],IC50 [31],also measured
CC(C)(C)[C@H](NC(=O)C(F)(F)F)C(=O)N1C[C@H]2[C@@H]([C@H]1C(=O)N[C@H](C#N)C[C@@H]1CCNC1=O)C2(C)C,85.5 nM,41.7 nM,181 nM,512 nM,2620 nM,199 nM,1700 nM,426 nM,176 nM,47 nM,203 nM,,,,,,
C=CC(=O)[C@H](Cc1cccc(Cl)c1)NC(=O)[C@H](CC(C)C)NC(=O)CSc1ccccc1,82.4 nM,42.5 nM,260 nM,239 nM,236 nM,211 nM,146 nM,414 nM,219 nM,65.4 nM,244 nM,254 nM,155 nM,297 nM,159 nM,261 nM,Ratio IC50 [12]: 21.7; Ratio IC50 [13]: 35.4; Ratio IC50 [15]: 25.4; Ratio IC50 [17]: 5.6; Ratio IC50 [18]: 13.2; Ratio IC50 [19]: 18.7; Ratio IC50 [22]: 22.3; Ratio IC50 [23]: 12.5; Ratio IC50 [24]: 20.9; Ratio IC50 [25]: 3.6; Ratio IC50 [26]: 13.6; Ratio IC50 [27]: 20.4; Ratio IC50 [28]: 18; Ratio IC50 [29]: 7; Ratio IC50 [30]: 22.2; Ratio IC50 [32]: 20.2
C=CC(=O)[C@H](Cc1ccccc1)NC(=O)[C@H](CC(C)C)NC(=O)COc1ccc(Cl)cc1Cl,140 nM,328 nM,1390 nM,392 nM,409 nM,714 nM,313 nM,745 nM,636 nM,368 nM,497 nM,472 nM,230 nM,1280 nM,390 nM,488 nM,
